This is an account of results in patent US20060063825A1, “Crystalline form of a drug” (priority 2004, published 2006).

Structures are written as SMILES. Values after ≈ are worked out from the molar mass of the structure shown. Where a name gives a salt, the structure may show the parent alone.

Data set [1] in a line: Solubility of Atrasentan Hydrochloride Crystalline Forms in 1,4-dioxane. It is filed as physicochemical. As to conditions: 1,4-dioxane at 25° C. (n=3). Here is the method: The solubility (in mg/mL) of Atrasentan Hydrochloride Crystalline Forms 1, 2 and 3 in 1,4-dioxane at 25° C.
A short description of data set [2]: Conversion of crystalline forms of atrasentan hydrochloride to Form 2 in representative solvents at 25° C. It is filed as physicochemical. More on the design: key: 1, 2 and 3 mean Atrasentan Hydrochloride Crystalline Forms 1, 2 and 3, respectively.; 1, 2 and 3 mean Atrasentan Hydrochloride Crystalline Forms 1, 2 and 3, respectively.; 1, 2 and 3 mean Atrasentan Hydrochloride Crystalline Forms 1, 2 and 3, respectively. The protocol: Examples of representative solvents that are useful for converting a particular crystalline form of atrasentan hydrochloride to Atrasentan Hydrochloride Crystalline Form 2 having substantial crystalline purity at 25° C. are shown in TABLE 2.

For orientation: solubility means how much of the substance goes into solution per volume.

With `CCCCN(CCCC)C(=O)CN1C[C@H](c2ccc3c(c2)OCO3)[C@@H](C(=O)O)[C@@H]1c1ccc(OC)cc1` [Form 3, (2R,3R,4S)-(+)-2-(4-methoxyphenyl)-4-(1,3-benzodioxol-5-yl)-1-(N,N-di(n-butyl)aminocarbonylmethyl)pyrrolidine-3-carboxylic acid], the solubility in data set [1] is 16.53 ± 0.22 mg/mL (≈ 32.4 mM).

In the case of `CCCCN(CCCC)C(=O)CN1C[C@H](c2ccc3c(c2)OCO3)[C@@H](C(=O)O)[C@@H]1c1ccc(OC)cc1` [atrasentan hydrochloride, (2R,3R,4S)-(+)-2-(4-methoxyphenyl)-4-(1,3-benzodioxol-5-yl)-1-(N,N-di(n-butyl)aminocarbonylmethyl)pyrrolidine-3-carboxylic acid], the crystalline form present in data set [2] (0.1M HCl, week 1, 25° C.) is on record as 1; in data set [2] (0.1M HCl, week 2, 25° C.) it was 1; in data set [2] (0.1M HCl, week 4, 25° C.) it was 1; in data set [2] (0.1M HCl, week 9, 25° C.), 2; in data set [2] (0.1M HCl, week 16, 25° C.), 2; in data set [2] (IPA (isopropyl alcohol), week 1, 25° C.) it was 1. Further, the crystalline form present is 1 in data set [2] (IPA (isopropyl alcohol), week 2, 25° C.); 2 in data set [2] (IPA (isopropyl alcohol), week 4, 25° C.); 2 in data set [2] (IPA (isopropyl alcohol), week 9, 25° C.); 2 in data set [2] (IPA (isopropyl alcohol), week 16, 25° C.); 1 in data set [2] (PEG 400 (polyethylene glycol), week 1, 25° C.); 1 in data set [2] (PEG 400 (polyethylene glycol), week 2, 25° C.). The crystalline form present came out at 1 in data set [2] (PEG 400 (polyethylene glycol), week 4, 25° C.); 1 in data set [2] (PEG 400 (polyethylene glycol), week 9, 25° C.); 2 in data set [2] (PEG 400 (polyethylene glycol), week 16, 25° C.); 2 in data set [2] (acetone, week 1, 25° C.); 2 in data set [2] (acetone, week 2, 25° C.); 2 in data set [2] (acetone, week 4, 25° C.). The crystalline form present in data set [2] (acetone, week 9, 25° C.) came out at 2; in data set [2] (acetone, week 16, 25° C.) it was 2; in data set [2] (ethanol, week 1, 25° C.), 2; in data set [2] (ethanol, week 2, 25° C.) it was 2; in data set [2] (ethanol, week 4, 25° C.), 2; in data set [2] (ethanol, week 9, 25° C.) it was 2. Further, the crystalline form present amounted to 2 in data set [2] (ethanol, week 16, 25° C.); 1 in data set [2] (ethyl acetate, week 1, 25° C.); 1 in data set [2] (ethyl acetate, week 2, 25° C.); 1 in data set [2] (ethyl acetate, week 4, 25° C.); 2 in data set [2] (ethyl acetate, week 9, 25° C.); 2 in data set [2] (ethyl acetate, week 16, 25° C.). Further, the crystalline form present in data set [2] (nitromethane, week 1, 25° C.) was 3; in data set [2] (nitromethane, week 2, 25° C.) it was 3; in data set [2] (nitromethane, week 4, 25° C.), 3; in data set [2] (nitromethane, week 9, 25° C.) it was 3; in data set [2] (nitromethane, week 16, 25° C.), 2.
